Source: PubChem BioAssay AID248 (DTP/NCI, 2004)
Several values for one entry are separate records, joined by “and”; a condition that tells them apart may be missing. Identical values can stand only once. Toxic doses and inconclusive results are not listed. Cut-off read from the data, not from the text of the source: active = T/C of 150% or more; inactive = T/C below 125%.

Test system: L1210 leukemia ip in BDF1 mice, survival T/C
Test: NCI In Vivo Anticancer Drug Screen. Data for tumor model L1210 Leukemia (intraperitoneal) in B6D2F1 (BDF1) mice
Details: endpoint: mean survival time, higher = longer survival
Method in brief: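 In this screen, tumor-bearing mice given compound are compared to those given vehicle, and their survival values are reported as a treated-to-control quotient.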

[1] = dose: 100.0 mg/kg/injection, schedule: Q01DX009 (ip), vehicle: saline with Tween-80
[2] = dose: 100.0 mg/kg/injection, schedule: Q04DX002 (ip), vehicle: Klucel (hydroxypropylcellulose) (HPC)
[3] = dose: 100.0 mg/kg/injection, schedule: Q04DX002 (ip), vehicle: saline with Tween-80
[4] = dose: 100.0 mg/kg/injection, schedule: Q04DX003 (ip), vehicle: saline with Tween-80
[5] = dose: 200.0 mg/kg/injection, schedule: Q01DX009 (ip), vehicle: saline with Tween-80
[6] = dose: 200.0 mg/kg/injection, schedule: Q04DX002 (ip), vehicle: Klucel (hydroxypropylcellulose) (HPC)
[7] = dose: 200.0 mg/kg/injection, schedule: Q04DX002 (ip), vehicle: saline with Tween-80
[8] = dose: 200.0 mg/kg/injection, schedule: Q04DX003 (ip), vehicle: saline with Tween-80
[9] = dose: 400.0 mg/kg/injection, schedule: Q01DX009 (ip), vehicle: saline with Tween-80
[10] = dose: 400.0 mg/kg/injection, schedule: Q04DX002 (ip), vehicle: Klucel (hydroxypropylcellulose) (HPC)
[11] = dose: 400.0 mg/kg/injection, schedule: Q04DX002 (ip), vehicle: saline with Tween-80
[12] = dose: 400.0 mg/kg/injection, schedule: Q04DX003 (ip), vehicle: saline with Tween-80
[13] = dose: 50.0 mg/kg/injection, schedule: Q01DX001 (ip), vehicle: saline
[14] = dose: 100.0 mg/kg/injection, schedule: Q01DX001 (ip), vehicle: saline
[15] = dose: 200.0 mg/kg/injection, schedule: Q01DX001 (ip), vehicle: saline
[16] = dose: 400.0 mg/kg/injection, schedule: Q01DX001 (ip), vehicle: saline
[17] = dose: 100.0 mg/kg/injection, schedule: Q04DX003 (ip), vehicle: Klucel (hydroxypropylcellulose) (HPC)
[18] = dose: 200.0 mg/kg/injection, schedule: Q04DX003 (ip), vehicle: Klucel (hydroxypropylcellulose) (HPC)
[19] = dose: 100.0 mg/kg/injection, schedule: Q01DX001 (ip), vehicle: Klucel (hydroxypropylcellulose) (HPC)
[20] = dose: 100.0 mg/kg/injection, schedule: Q01DX009 (ip), vehicle: Klucel (hydroxypropylcellulose) (HPC)
[21] = dose: 200.0 mg/kg/injection, schedule: Q01DX001 (ip), vehicle: Klucel (hydroxypropylcellulose) (HPC)
[22] = dose: 200.0 mg/kg/injection, schedule: Q01DX009 (ip), vehicle: Klucel (hydroxypropylcellulose) (HPC)
[23] = dose: 400.0 mg/kg/injection, schedule: Q01DX001 (ip), vehicle: Klucel (hydroxypropylcellulose) (HPC)
[24] = dose: 400.0 mg/kg/injection, schedule: Q01DX009 (ip), vehicle: Klucel (hydroxypropylcellulose) (HPC)
[25] = dose: 400.0 mg/kg/injection, schedule: Q04DX003 (ip), vehicle: Klucel (hydroxypropylcellulose) (HPC)
[26] = dose: 75.0 mg/kg/injection, schedule: Q01DX001 (ip), vehicle: saline
[27] = dose: 150.0 mg/kg/injection, schedule: Q01DX001 (ip), vehicle: saline
[28] = dose: 50.0 mg/kg/injection, schedule: Q01DX001 (ip), vehicle: Klucel (hydroxypropylcellulose) (HPC)

Measured: T/C

C/C=C\c1ccc(OC(=O)NCCC)c(OC)c1
inactive: [1] 95 % of control and 97 % of control | [2] 100 % of control | [3] 102 % of control and 106 % of control | [4] 97 % of control | [5] 95 % of control and 97 % of control | [6] 113 % of control | [7] 105 % of control and 112 % of control | [8] 87 % of control | [9] 97 % of control | [10] 95 % of control | [11] 94 % of control and 106 % of control | [12] 102 % of control

CC(C)(C)OC(=O)C(c1ccccc1)c1ccccc1
inactive: [13] 106 % of control | [14] 89 % of control | [15] 106 % of control | [16] 89 % of control

CC(=O)NNc1ccccc1Cl
inactive: [17] 96 % of control | [18] 117 % of control

CC1=C(C)C(=O)C(CC2=C(C)C(=O)C(C)=C(C)C2=O)=C(C)C1=O
inactive: dose: 100.0 mg/kg/injection, schedule: Q01DX005 (ip), vehicle: saline with Tween-80 101 % of control | [1] 96 % of control | dose: 200.0 mg/kg/injection, schedule: Q01DX005 (ip), vehicle: saline with Tween-80 96 % of control | [5] 100 % of control | dose: 400.0 mg/kg/injection, schedule: Q01DX005 (ip), vehicle: saline with Tween-80 104 % of control | [9] 96 % of control

Cc1ncc(C(O)c2ccc(N(C)C)cc2)n1Cc1ccccc1 (stereo unspecified)
inactive: [19] 95 % of control | [20] 100 % of control and 104 % of control | [2] 111 % of control | [17] 103 % of control | [21] 95 % of control | [22] 103 % of control and 115 % of control | [6] 94 % of control and 115 % of control | [18] 105 % of control | [23] 89 % of control | [24] 88 % of control | [10] 98 % of control and 99 % of control | [25] 103 % of control

CCCCS(=O)(=O)N(CCC)CCC
inactive: [3] 93 % of control | [7] 93 % of control | [11] 97 % of control

CC(C)NCc1ccccc1
inactive: [3] 95 % of control | [7] 98 % of control

CCCCC(=O)NC1CCCCC1
inactive: [26] 101 % of control | [27] 95 % of control

CC1=Cc2ccc(C)cc2C(=O)C1=O
inactive: dose: 6.25 mg/kg/injection, schedule: Q04DX003 (ip), vehicle: saline with Tween-80 94 % of control

CC(Nc1ccccc1)(C(N)=O)c1ccccc1 (stereo unspecified)
inactive: dose: 100.0 mg/kg/injection, schedule: Q01DX001 (ip), vehicle: saline sonified 96 % of control | dose: 200.0 mg/kg/injection, schedule: Q01DX001 (ip), vehicle: saline sonified 100 % of control | dose: 400.0 mg/kg/injection, schedule: Q01DX001 (ip), vehicle: saline sonified 97 % of control

CCCCN(CCCC)CCNCC(Cc1ccccc1)c1ccccc1 (stereo unspecified)
inactive: [2] 93 % of control

CC[N+](CC)(CCO)CCCCCCCCCC[N+](CC)(CC)CCO
inactive: dose: 0.15 mg/kg/injection, schedule: Q04DX003 (ip), vehicle: saline 100 % of control | dose: 0.3 mg/kg/injection, schedule: Q04DX003 (ip), vehicle: saline 103 % of control | dose: 0.6 mg/kg/injection, schedule: Q04DX003 (ip), vehicle: saline 105 % of control

CC(CCC(=O)O)([N+](=O)[O-])[N+](=O)[O-]
inactive: [19] 98 % of control | [21] 102 % of control | [23] 98 % of control

CCCCCC(/C=N\NC(=O)CCCC(=O)N/N=C/C(=C/c1ccccc1)CCCCC)=C\c1ccccc1
inactive: [13] 89 % of control | [14] 95 % of control | [15] 97 % of control | [16] 89 % of control

COCc1ccc(C(=O)O)cc1
inactive: dose: 100.0 mg/kg/injection, schedule: Q01DX009 (ip), vehicle: gum acacia 101 % of control | dose: 200.0 mg/kg/injection, schedule: Q01DX009 (ip), vehicle: gum acacia 97 % of control | dose: 400.0 mg/kg/injection, schedule: Q01DX009 (ip), vehicle: gum acacia 101 % of control

Cc1ccc(OC/C=C/CSc2ccc(C)cc2)cc1
inactive: [19] 98 % of control | [17] 101 % of control | [21] 94 % of control | [18] 97 % of control | [23] 94 % of control | [25] 95 % of control

Cc1cn(O)c2nc(N)nc(=O)c-2n1
inactive: dose: 25.0 mg/kg/injection, schedule: Q01DX001 (ip), vehicle: Klucel (hydroxypropylcellulose) (HPC) 97 % of control | [28] 103 % of control | [19] 100 % of control and 101 % of control

Cc1cccc(CN2C(=O)c3ccccc3C2=O)c1
inactive: [19] 100 % of control | [21] 103 % of control | [23] 102 % of control

Cc1ccc(-c2nc(N)[nH]c(=O)c2CCCN(c2ccccc2)S(=O)(=O)c2ccc(C)cc2)cc1
inactive: [17] 102 % of control | [18] 101 % of control | [25] 102 % of control

COC(/C=C/c1ccccc1)=N\S(=O)(=O)c1ccccc1
inactive: [28] 98 % of control | [19] 100 % of control | [21] 107 % of control

C#CCOCCC(=O)O
inactive: dose: 100.0 mg/kg/injection, schedule: Q04DX003 (ip), vehicle: acetone 106 % of control

O=C(NCc1ccco1)NCc1ccco1
inactive: dose: 25.0 mg/kg/injection, schedule: Q01DX009 (ip), vehicle: Klucel (hydroxypropylcellulose) (HPC) 91 % of control | dose: 25.0 mg/kg/injection, schedule: Q04DX003 (ip), vehicle: Klucel (hydroxypropylcellulose) (HPC) 103 % of control | dose: 50.0 mg/kg/injection, schedule: Q01DX009 (ip), vehicle: Klucel (hydroxypropylcellulose) (HPC) 96 % of control | dose: 50.0 mg/kg/injection, schedule: Q04DX003 (ip), vehicle: Klucel (hydroxypropylcellulose) (HPC) 97 % of control | [17] 98 % of control and 101 % of control

S=c1oc2cccc3c2n1CCC3
inactive: [1] 113 % of control | [4] 97 % of control | [5] 101 % of control | [8] 107 % of control | [9] 98 % of control | [12] 97 % of control

CSc1ncnc2c1nnn2C1OC(CO)C(O)C1O (stereo unspecified)
inactive: dose: 12.5 mg/kg/injection, schedule: Q01DX001 (ip), vehicle: saline 97 % of control | dose: 25.0 mg/kg/injection, schedule: Q01DX001 (ip), vehicle: saline 103 % of control | [13] 115 % of control | [26] 114 % of control | [14] 110 % of control | [27] 110 % of control

O=c1[nH]cnc2nc(SCc3ccccc3NCBr)[nH]c12
inactive: dose: 31.3 mg/kg/injection, schedule: Q04DX002 (ip), vehicle: Klucel (hydroxypropylcellulose) (HPC) 91 % of control | dose: 62.5 mg/kg/injection, schedule: Q04DX002 (ip), vehicle: Klucel (hydroxypropylcellulose) (HPC) 91 % of control | dose: 125.0 mg/kg/injection, schedule: Q04DX002 (ip), vehicle: Klucel (hydroxypropylcellulose) (HPC) 88 % of control

CS(=O)(=O)OCCN(CCOS(C)(=O)=O)c1ccc(C=Nc2cccc(Cl)c2)c(Cl)c1
inactive: [17] 106 % of control | [18] 105 % of control | [25] 113 % of control

COc1ccc(OC)c(NC(=S)NC(=O)c2ccccc2F)c1
inactive: [1] 94 % of control | [5] 86 % of control

CCOC(=O)C(CCNC(=O)c1ccccc1)C(=O)OCC
inactive: [20] 103 % of control | [17] 93 % of control | [22] 91 % of control | [18] 95 % of control | [24] 89 % of control | [25] 93 % of control
